Among the data in patent publication US20140128385A1 (NOVARTIS AG, priority 2011, published 2014) are IC50 values, retold here.

Where a name gives a salt, the structure may show the parent alone.

Usually IC50 stands for the concentration needed to halve the response being measured.

For the assay, the target named is T1, BACE-2 (Homo sapiens, UniProt Q9Y5Z0).
T1 construct: Recombinant BACE-2 (extracellular domain, expressed in baculovirus and purified using standard methods); made in house
T1 sequence (Q9Y5Z0 63-473 limits assumed): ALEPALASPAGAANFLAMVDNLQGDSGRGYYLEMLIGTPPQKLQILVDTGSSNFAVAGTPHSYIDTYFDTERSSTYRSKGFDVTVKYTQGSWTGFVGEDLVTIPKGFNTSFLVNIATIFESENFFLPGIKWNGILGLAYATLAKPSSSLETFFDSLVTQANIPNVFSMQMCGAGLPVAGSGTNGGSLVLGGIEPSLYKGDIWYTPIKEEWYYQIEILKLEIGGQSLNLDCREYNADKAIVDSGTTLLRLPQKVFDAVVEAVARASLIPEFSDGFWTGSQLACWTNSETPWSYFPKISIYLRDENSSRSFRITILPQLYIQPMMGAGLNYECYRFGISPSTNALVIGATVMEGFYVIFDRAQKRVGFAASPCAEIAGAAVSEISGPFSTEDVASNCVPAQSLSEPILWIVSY
Nature of the assay: assay for inhibition of BACE-2. The class given is biochemical.
Compound `C[C@@]1(c2cc(NC(=O)c3ncc(C(F)F)nc3N)ccc2F)CO[C@@](C)(C(F)(F)F)C(N)=N1` [Example 242, 3-Amino-5-difluoromethyl-pyrazine-2-carboxylic acid [3-((3R,6R)-5-amino-3,6-dimethyl-6-trifluoromethyl-3,6-dihydro-2H-[1,4]oxazin-3-yl)-4-fluoro-phenyl]-amide] yielded an IC50 of 11 nM. For `C[C@@]1(c2cc(NC(=O)c3ncc(C(F)F)cc3N)ccc2F)CO[C@@](C)(C(F)(F)F)C(N)=N1` [Example 243, 3-Amino-5-difluoromethyl-pyridine-2-carboxylic acid [3-((3R,6R)-5-amino-3,6-dimethyl-6-trifluoromethyl-3,6-dihydro-2H-[1,4]oxazin-3-yl)-4-fluoro-phenyl]-amide] the value was 11 nM; for `COc1cc(C(F)F)c(C(=O)Nc2ccc(F)c([C@]3(C)CO[C@@](C)(C(F)(F)F)C(N)=N3)c2)nn1` [Example 244, 4-Difluoromethyl-6-methoxy-pyridazine-3-carboxylic acid [3-((3R,6R)-5-amino-3,6-dimethyl-6-trifluoromethyl-3,6-dihydro-2H-[1,4]oxazin-3-yl)-4-fluoro-phenyl]-amide hydrochloride], 9 nM; for `[2H]C([2H])([2H])OCc1cc(C#N)cnc1C(=O)Nc1ccc(F)c([C@]2(C)CO[C@@](C)(C(F)(F)F)C(N)=N2)c1` [Example 245, 5-Cyano-3-trideuteromethoxymethyl-pyridine-2-carboxylic acid [3-((3R,6R)-5-amino-3,6-dimethyl-6-trifluoromethyl-3,6-dihydro-2H-[1,4]oxazin-3-yl)-4-fluoro-phenyl]-amide], 13 nM. Turning to `C[C@@]1(c2cc(NC(=O)c3ncc(C(F)F)cc3Cl)ccc2F)CO[C@@](C)(C(F)(F)F)C(N)=N1` [Example 246, 3-Chloro-5-difluormethyl-pyridine-2-carboxylic acid [3-((3R,6R)-5-amino-3,6-dimethyl-6-trifluoromethyl-3,6-dihydro-2H-[1,4]oxazin-3-yl)-4-fluoro-phenyl]-amide-amide], the IC50 came out at 8 nM. `[2H]C([2H])([2H])OC([2H])([2H])c1cc2c(Cl)c[nH]c2nc1C(=O)Nc1ccc(F)c([C@]2(C)CO[C@@](C)(C(F)(F)F)C(N)=N2)c1` [Example 247, 3-Chloro-5-trideuteromethoxy-dideuteromethyl-1H-pyrrolo[2,3-b]pyridine-6-carboxylic acid [3-((3R,6R)-5-amino-3,6-dimethyl-6-trifluoromethyl-3,6-dihydro-2H-[1,4]oxazin-3-yl)-4-fluoro-phenyl]-amide] came in with an IC50 of 44 nM. As for `C[C@@]1(c2cc(NC(=O)c3ncc(C(F)(F)F)cc3Cl)ccc2F)CO[C@@](C)(C(F)(F)F)C(N)=N1` [Example 248, 3-Chloro-5-trifluoromethyl-pyridine-2-carboxylic acid [3-((3R,6R)-5-amino-3,6-dimethyl-6-trifluoromethyl-3,6-dihydro-2H-[1,4]oxazin-3-yl)-4-fluoro-phenyl]-amide], the figure is 22 nM; as for `Cc1cc(F)cnc1C(=O)Nc1ccc(F)c([C@]2(C)CO[C@@](C)(C(F)(F)F)C(N)=N2)c1` [Example 249, 5-Fluoro-3-methyl-pyridine-2-carboxylic acid [3-((3R,6R)-5-amino-3,6-dimethyl-6-trifluoro-methyl-3,6-dihydro-2H-[1,4]oxazin-3-yl)-4-fluoro-phenyl]-amide], 3 nM; as for `Cc1cc(OC(F)F)cnc1C(=O)Nc1ccc(F)c(C2(C)COC(CF)(CF)C(N)=N2)c1` (stereo not shown) [Example 253, 5-Difluoromethoxy-3-methyl-pyridine-2-carboxylic acid [3-(5-amino-6,6-bis-fluoromethyl-3-methyl-3,6-dihydro-2H-[1,4]oxazin-3-yl)-4-fluoro-phenyl]-amide], 426 nM.

In the case of `Cc1cc(OC(F)F)cnc1C(=O)Nc1ccc(F)c([C@]2(C)COC(CF)(CF)C(N)=N2)c1` [Example 254, 5-Difluoromethoxy-3-methyl-pyridine-2-carboxylic acid [3-((R)-5-amino-6,6-bis-fluoromethyl-3-methyl-3,6-dihydro-2H-[1,4]oxazin-3-yl)-4-fluoro-phenyl]-amide], the midpoint of inhibition, the IC50, lay at 59 nM. For `Cc1cc(Cl)cnc1C(=O)Nc1ccc(F)c(C2(C)COC(CF)(CF)C(N)=N2)c1` (stereo not shown) [Example 255, 5-Chloro-3-methyl-pyridine-2-carboxylic acid [3-(5-amino-6,6-bis-fluoromethyl-3-methyl-3,6-dihydro-2H-[1,4]oxazin-3-yl)-4-fluoro-phenyl]-amide] the value was 9 nM; for `Cc1cc(C#N)cnc1C(=O)Nc1ccc(F)c([C@]2(CF)COC(CF)(CF)C(N)=N2)c1` [Example 256, 5-Cyano-3-methyl-pyridine-2-carboxylic acid [3-((R)-5-amino-3,6,6-tris-fluoromethyl-3,6-dihydro-2H-[1,4]oxazin-3-yl)-4-fluoro-phenyl]-amide], 18 nM; for `C[C@@]1(c2cccc(NC(=O)c3ccc(Br)cn3)n2)COCC(N)=N1` [Example 257, 5-Bromo-pyridine-2-carboxylic acid [6-((R)-5-amino-3-methyl-3,6-dihydro-2H-[1,4]-oxazin-3-yl)-pyridin-2-yl]-amide], 256 nM.

Compound `NC1=NC(CF)(c2cccc(NC(=O)c3ccc(Cl)cn3)n2)COC1` (stereo not shown) [Example 259, 5-{6-[(5-Chloro-pyridine-2-carbonyl)-amino]-pyridin-2-yl}-5-fluoromethyl-5,6-dihydro-2H-[1,4]oxazin-3-yl-ammonium trifluoro acetate] yielded a half-maximal inhibitory concentration (IC50) of 1390 nM. As for `NC1=NC(CF)(c2cccc(NC(=O)c3ccc(Br)cn3)n2)COC1` (stereo not shown) [Example 260], the figure is 1660 nM; as for `Cc1cc(C#N)cnc1C(=O)Nc1cccc(C2(CF)COCC(N)=N2)n1` (stereo not shown) [Example 261, 5-{6-[(5-Cyano-3-methyl-pyridine-2-carbonyl)-amino]-pyridin-2-yl}-5-fluoromethyl-5,6-dihydro-2H-[1,4]oxazin-3-yl-ammonium trifluoro acetate], 1020 nM. For `[2H]c1nc(C(=O)Nc2cccc(C3(CF)COCC(N)=N3)n2)c(C([2H])([2H])[2H])c([2H])c1Cl` (stereo not shown) [Example 262, 5-{6-[(4,6-Dideutero-5-chloro-3-trideuteromethyl-pyridine-2-carbonyl)-amino]-pyridin-2-yl}-5-fluoromethyl-5,6-dihydro-2H-[1,4]oxazin-3-yl-ammonium trifluoro acetate] the value was 242 nM; for `NC(=S)c1ccc(C(=O)Nc2cccc(C3(CF)COCC(N)=N3)n2)nc1` (stereo not shown) [Example 263], 8660 nM.

The compound `[2H]c1nc(C(=O)Nc2cc(C3(CF)COCC(N)=N3)ccn2)c(C([2H])([2H])[2H])c([2H])c1Cl` (stereo not shown) [Example 269, 5-{2-[(5-Chloro-4,6-dideutero-3-trideuteromethyl-pyridine-2-carbonyl)-amino]-pyridin-4-yl}-5-fluoromethyl-5,6-dihydro-2H-[1,4]oxazin-3-yl-ammonium acetate] showed a half-inhibitory concentration (IC50) of 1530 nM.

The compound `NC1=NC(CF)(c2ccnc(NC(=O)c3ccc(Cl)cn3)c2)COC1` (stereo not shown) [Example 270] yielded an IC50 of 4820 nM. On to `Cc1cc(C(N)=S)cnc1C(=O)Nc1cc(C2(CF)COCC(N)=N2)ccn1` (stereo not shown) [Example 271, 5-Fluoromethyl-5-{2-[(3-methyl-5-thiocarbamoyl-pyridine-2-carbonyl)-amino]-pyridin-4-yl}-5,6-dihydro-2H-[1,4]oxazin-3-yl-ammonium trifluoro-acetate], for which the IC50 is > 10000 nM. For `NC1=NC(CF)(c2cc(NC(=O)c3ccc(Br)cn3)cnc2Cl)COC1` (stereo not shown) [Example 274, 5-Bromo-pyridine-2-carboxylic acid [5-(5-amino-3-fluoromethyl-3,6-dihydro-2H-[1,4]oxazin-3-yl)-6-chloro-pyridin-3-yl]-amide hydrochloride] the value was 132 nM.
